pKi: −log10 of the molar value. Where a name gives a salt, the structure may show the parent alone.
Molecular target: T1, human cloned 5-HT6 receptors (Homo sapiens, UniProt P50406)
T1 construct: expressed in transfected cells; host or cells: HeLa cells
Experiment: 5-HT6 binding affinity, [3H]-LSD displacement
Conditions: membranes of Hela cells expressing human cloned 5-HT6 receptors; [3H]-LSD 3.0 nM; 120 minutes at room temperature

T1 sequence (P50406 whole entry): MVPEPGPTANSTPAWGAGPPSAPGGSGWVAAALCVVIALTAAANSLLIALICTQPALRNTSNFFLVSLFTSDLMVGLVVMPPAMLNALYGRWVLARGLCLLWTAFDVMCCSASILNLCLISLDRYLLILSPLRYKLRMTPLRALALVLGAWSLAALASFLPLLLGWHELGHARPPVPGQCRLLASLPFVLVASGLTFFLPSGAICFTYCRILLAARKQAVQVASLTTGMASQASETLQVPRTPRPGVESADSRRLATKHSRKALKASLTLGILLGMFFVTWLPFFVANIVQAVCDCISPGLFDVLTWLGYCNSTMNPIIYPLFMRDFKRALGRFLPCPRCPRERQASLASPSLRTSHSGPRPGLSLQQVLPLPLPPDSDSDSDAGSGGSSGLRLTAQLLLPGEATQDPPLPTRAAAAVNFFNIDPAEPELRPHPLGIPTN

Structure (SMILES) | pKi
NCCOc1cccc2[nH]nc(S(=O)(=O)c3cccc4ccccc34)c12 [Example 141] | 7.60 to 7.96
NCCOc1ccc2c(S(=O)(=O)c3cccc4ccccc34)n[nH]c2c1 [Example 146, 2-{[3-(1-Naphtylsulfonyl)-1H-indazol-6-yl]oxy}ethanamine] | 7.60 to 7.96
CNCCOc1ccc2c(S(=O)(=O)c3cccc4ccccc34)n[nH]c2c1 [Example 147, N-Methyl-2-{[3-(1-naphthylsulfonyl)-1H-indazol-6-yl]oxy}ethanamine Hydrochloride] | 7.60 to 7.96
CN(C)CCOc1ccc2c(S(=O)(=O)c3cccc4ccccc34)n[nH]c2c1 [Example 148] | < 7.35
O=S(=O)(c1cccc2ccccc12)c1n[nH]c2cc(OCCN3CCCCC3)ccc12 [Example 149] | < 7.35
O=S(=O)(c1cccc2ccccc12)c1n[nH]c2cc(OCCN3CCCC3)ccc12 [Example 150] | < 7.35
CN(C)CCNC(=O)c1ccc2[nH]nc(S(=O)(=O)c3cccc4ccccc34)c2c1 [Example 151, N-[2-(Dimethylamino)ethyl]-3-(1-naphthylsulfonyl)-1H-indazole-5-carboxamide] | 8.00 to 11.00
O=C(NCCN1CCCCC1)c1ccc2[nH]nc(S(=O)(=O)c3cccc4ccccc34)c2c1 [Example 152, 3-(1-Naphtylsulfonyl)-N-(2-piperidin-1-ylethyl)-1H-indazole-5-carboxamide] | < 7.35
CN(C)CCN(C)Cc1ccc2[nH]nc(S(=O)(=O)c3cccc4ccccc34)c2c1 [Example 153, N,N, N′-Trimethyl-N′-{[3-(1-naphthylsulfonyl)-1H-indazol-5-yl]methyl}ethane-1,2-diamine] | 7.60 to 7.96
O=S(=O)(c1cccc2ccccc12)c1n[nH]c2ccc(CN[C@H]3CCNC3)cc12 [Example 154, (3S)—N-{([3-(1-Naphthylsulfonyl)-1H-indazol-5-yl]methyl}pyrrolidin-3-amine Hydrochloride] | 7.60 to 7.96
NCCNCc1ccc2[nH]nc(S(=O)(=O)c3cccc4ccccc34)c2c1 [Example 155, N{[3-(1-Naphthylsulfonyl)-1H-indazol-5yl]methyl}ethane-1.2-diamine] | 7.60 to 7.96
CN(C)CCOCc1ccc2[nH]nc(S(=O)(=O)c3cccc4ccccc34)c2c1 [Example 156, N,N-Dimethyl-2-{[3-(1-naphthylsulfonyl)-1H-indazol-5-yl]methoxy}ethanamine] | 8.00 to 11.00
NCCNc1ccc2[nH]nc(S(=O)(=O)c3cccc4ccccc34)c2c1 [Example 157, N1-[3-(Naphthalene-1-sulfonyl)-1H-indazol-5-yl]-ethane-1,2-diamine dihydrochloride] | 8.00 to 11.00
NCCC(=O)Nc1ccc2[nH]nc(S(=O)(=O)c3cccc4ccccc34)c2c1 [Example 158, 3-Amino-N-[3-(naphthalene-1-sulfonyl)-1H-indazol-5-yl]-propionamide hydrochloride] | 8.00 to 11.00
CC(N)CNc1ccc2[nH]nc(S(=O)(=O)c3cccc4ccccc34)c2c1 (stereo not drawn) [Example 159, N1-[3-(Naphthalene-1-sulfonyl)-1H-indazol-5-yl]-propane-1,2-diamine hydrochloride] | 7.60 to 7.96
NCCNc1cccc2c(S(=O)(=O)c3cccc4ccccc34)n[nH]c12 [Example 161, N1-[3-(Naphthalene-1-sulfonyl)-1H-indazol-7-yl]-ethane-1,2-diamine dihydrochloride] | 7.60 to 7.96
CN(C)CCC(=O)Nc1cccc2c(S(=O)(=O)c3cccc4ccccc34)n[nH]c12 [Example 162, 3-Dimethylamino-N-[3-(naphthalene-1-sulfonyl)-1H-indazol-7-yl]-propionamide hydrochloride] | 8.00 to 11.00
O=C(CCN1CCCCC1)Nc1cccc2c(S(=O)(=O)c3cccc4ccccc34)n[nH]c12 [Example 163, N-[3-(Naphthalene-1-sulfonyl)-1H-indazol-7-yl]-3-piperidin-1-yl-propionamide hydrochloride] | 7.60 to 7.96
NCCC(=O)Nc1cccc2c(S(=O)(=O)c3cccc4ccccc34)n[nH]c12 [Example 164, 3-Amino-N-[3-(naphthalene-1-sulfonyl)-1H-indazol-7-yl]-propionamide hydrochloride] | 8.00 to 11.00
NCCC(=O)Nc1ccc2c(S(=O)(=O)c3cccc4ccccc34)n[nH]c2c1 [Example 165, 3-Amino-N-[3-(naphthalene-1-sulfonyl)-1H-indazol-6-yl]-propionamide hydrochloride] | 7.60 to 7.96
CCN(CC)CCC(=O)Nc1cccc2c(S(=O)(=O)c3cccc4ccccc34)n[nH]c12 [Example 166, 3-Diethylamino-N-[3-(naphthalene-1-sulfonyl)-1H-indazol-7-yl]-propionamide hydrochloride] | 7.46 to 7.59
O=C(CCN1CCCCC1)Nc1ccc2c(S(=O)(=O)c3cccc4ccccc34)n[nH]c2c1 [Example 167, N-[3-(Naphthalene-1-sulfonyl)-1H-indazol-6-yl]-3-piperidin-1-yl-propionamide hydrochloride] | 7.60 to 7.96

Structure (SMILES) | pKi
CN(C)CCC(=O)Nc1ccc2c(S(=O)(=O)c3cccc4ccccc34)n[nH]c2c1 [Example 168, 3-Dimethylamino-N-[3-(naphthalene-1-sulfonyl)-1H-indazol-6-yl]-propionamide hydrochloride] | 7.35 to 7.44
CCN(CC)CCC(=O)Nc1ccc2c(S(=O)(=O)c3cccc4ccccc34)n[nH]c2c1 [Example 169, 3-Diethylamino-N-[3-(naphthalene-1-sulfonyl)-1H-indazol-6-yl]-propionamide hydrochloride] | < 7.35
NCCNc1ccc2c(S(=O)(=O)c3cccc4ccccc34)n[nH]c2c1 [Example 170, N1-[3-(Naphthalene-1-sulfonyl)-1H-indazol-6-yl]-ethane-1,2-diamine dihydrochloride] | 7.60 to 7.96
CN(C)CCc1cccc2c(S(=O)(=O)c3ccccc3)n[nH]c12 [Example 171, N,N-Dimethyl-N-{2-[3-(phenylsulfonyl)-1H-indazol-7-yl]ethyl}amine hydrochloride] | 8.00 to 11.00
O=S(=O)(c1ccccc1)c1n[nH]c2c(CCNC3CC3)cccc12 [Example 172, N-{2-[3-(phenylsulfonyl)-1H-indazol-7-yl]ethyl}cyclopropanamine hydrochloride] | 7.60 to 7.96
CNCCc1cccc2c(S(=O)(=O)c3ccccc3)n[nH]c12 [Example 173, N-Methyl-N-{2-[3-(phenylsulfonyl)-1H-indazol-7-yl]ethyl}amine trifluoroacetate] | 8.00 to 11.00
CN(C)CCc1ccc2[nH]nc(S(=O)(=O)c3ccccc3)c2c1 [Example 176, N,N-Dimethyl-N-{2-[3-(phenylsulfonyl)-1H-indazol-5-yl]ethyl}amine hydrochloride] | 7.60 to 7.96
CN(C)CCCc1ccc2[nH]nc(S(=O)(=O)c3ccccc3)c2c1 [Example 177, N,N-Dimethyl-N-{3-[3-(phenylsulfonyl)-1H-indazol-5-yl]propyl}amine trifluoroacetate] | 7.60 to 7.96
O=S(=O)(c1ccccc1)c1n[nH]c2ccc(CCCNC3CC3)cc12 [Example 178, N{3-[3-(Phenylsulfonyl)-1H-indazol-5-yl]propyl}cyclopropanamine trifluoroacetate] | 7.60 to 7.96
CC(C)NCCCc1ccc2[nH]nc(S(=O)(=O)c3ccccc3)c2c1 [Example 179, N-Isopropyl-N-{3-[3-(phenylsulfonyl)-1H-indazol-5-yl]propyl}amine trifluoroacetate] | < 7.35
NCCCc1ccc2[nH]nc(S(=O)(=O)c3ccccc3)c2c1 [Example 180, {3-[3-(Phenylsulfonyl)-1H-indazol-5-yl]propyl}amine trifluoroacetate] | 7.60 to 7.96
NCCCCc1ccc2[nH]nc(S(=O)(=O)c3ccccc3)c2c1 [Example 181, {4-[3-(Phenylsulfonyl)-1H-indazol-5-yl]butyl}amine hydrochloride] | 7.46 to 7.59
CN(C)CCCc1ccc2[nH]nc(S(=O)(=O)c3cccc4ccccc34)c2c1 [Example 182, N,N-Dimethyl-N-{3-[3-(naphthylsulfonyl)-1H-indazol-5-yl]propyl}amine hydrochloride] | 8.00 to 11.00
NCCCCc1ccc2[nH]nc(S(=O)(=O)c3cccc4ccccc34)c2c1 [Example 189, {4-[3-(Naphthylsulfonyl)-1H-indazol-5-yl]butyl}amine hydrochloride] | 8.00 to 11.00
O=S(=O)(c1cccc2ccccc12)c1n[nH]c2ccc(CN3CCNCC3)cc12 [Example 195, 3-(1-Naphthylsulfonyl)-5-(piperazin-1-ylmethyl)-1H-indazole] | 8.00 to 11.00
CN1CCN(Cc2ccc3[nH]nc(S(=O)(=O)c4cccc5ccccc45)c3c2)CC1 [Example 196] | 8.00 to 11.00
CC1CN(Cc2ccc3[nH]nc(S(=O)(=O)c4cccc5ccccc45)c3c2)CCN1 (stereo not drawn) [Example 197] | 8.00 to 11.00
CC1CN(Cc2ccc3[nH]nc(S(=O)(=O)c4cccc5ccccc45)c3c2)CC(C)N1 (stereo not drawn) [Example 198] | 8.00 to 11.00
C[C@H]1CN(Cc2ccc3[nH]nc(S(=O)(=O)c4cccc5ccccc45)c3c2)CCN1 [Example 199] | 7.60 to 7.96
C[C@@H]1CN(Cc2ccc3[nH]nc(S(=O)(=O)c4cccc5ccccc45)c3c2)CCN1 [Example 200] | 8.00 to 11.00
N[C@@H]1CCN(Cc2ccc3[nH]nc(S(=O)(=O)c4cccc5ccccc45)c3c2)C1 [Example 201] | 8.00 to 11.00
O=C(c1ccc2[nH]nc(S(=O)(=O)c3cccc4ccccc34)c2c1)N1CCNCC1 [Example 202, 3-(1-Naphthylsulfonyl)-5-(piperazin-1 ylcarbonyl)-1H-indazole] | < 7.35

Test system: not given
Experiment: not given
Conditions: not given

Structure (SMILES) | melting point [°C]
CN(C)CCOCc1ccc2[nH]nc(S(=O)(=O)c3cccc4ccccc34)c2c1 (as salt: HCl) [Example 156, N,N-Dimethyl-2-{[3-(1-naphthylsulfonyl)-1H-indazol-5-yl]methoxy}ethanamine] | > 200
CN1CCN(Cc2ccc3[nH]nc(S(=O)(=O)c4cccc5ccccc45)c3c2)CC1 (as salt: HCl) [Example 196] | > 200
CC1CN(Cc2ccc3[nH]nc(S(=O)(=O)c4cccc5ccccc45)c3c2)CCN1 (stereo not drawn) (as salt: HCl) [Example 197] | > 200
CC1CN(Cc2ccc3[nH]nc(S(=O)(=O)c4cccc5ccccc45)c3c2)CC(C)N1 (stereo not drawn) (as salt: HCl) [Example 198] | > 200
